Measured values: article PMC7397659, “Pseudonajide peptide derived from snake venom alters cell envelope integrity interfering on biofilm formation in Staphylococcus epidermidis” (BMC Microbiology, 2020)
Where no end group is shown, it is not given here.

Tests used:
[1] = tested on: S. epidermidis ATCC 35984; assay: Antibiofilm formation test, crystal violet protocol; assay type: cell-based, Staphylococcus epidermidis; details: 100 μM peptide, 24 h exposure, crystal violet OD570, at least 3 biological replicates
Protocol: S. epidermidis ATCC 35984 and Pseudomonas aeruginosa PAO1 were used to test the antimicrobial and antibiofilm activities of the peptides. Both bacteria were grown in blood agar plates and cultured overnight at 37 °C. Cell suspensions were prepared in a solution of 0.9% NaCl and adjusted to OD600 for a final concentration of ~ 10^8 cells/ml. For microscopy analysis, pre-inoculum was made in tryptic soy broth (TSB, Merck), and adjusted to OD600 for the same concentration of cells for all tests.
Serial dilution of peptides was performed in 96-well plates, going from 100 to 3.12 μM. Cell suspensions and TSB were added to the plates and a control was made with dimethyl sulfoxide (DMSO). Antibiofilm formation tests were performed with an adapted protocol, in which it is described that 24 h of incubation is sufficient to determinate antibiofilm activity. The OD600 was measured, then biofilm content accessed using the crystal violet protocol. Biofilm eradication test was performed supplementing 24 h pre-formed biofilm with a new culture broth, containing or not 25 μM of peptide. The plates were incubated for further 24 h followed by crystal violet protocol. The antimicrobial activity of pseudonajide was analyzed using a concentration of 25 μM after 1, 2, 4, and 24 h incubation. After measuring the optical density, the supernatant was collected and diluted. […] CFUs were counted after 24 h incubation. […]

[2] = tested on: MDA-MB231 (breast adenocarcinoma); assay: Cytotoxicity test, ImPACcell platform; assay type: cell-based, human; details: 25 μM, 24 h
Protocol: (§1) Cytotoxicity tests were performed on the ImPACcell robotic platform (BIOSIT, Université de Rennes 1). This featured high-throughput multiparameter image analysis, with both high-content screening and high-content analysis. The platform is equipped with an Olympus microscope and Compix SimplePCI software; a Zeiss Axio Imager M1 microscope with a Zeiss camera and AxioVision software; and imaging systems including an ArrayScan VTI Cellomics reader (Thermo Fisher), Hamilton STARlet and NIMBUS workstations, and a Scienion spotter. Cells used in the test were obtained from an already-existing collection available at BIOSIT (https://biosit.univ-rennes1.fr/impaccell-imagerie-pour-analyse-du-contenu-cellulaire). For the tests, seven different cell lines were used: human hepatocellular carcinoma (HuH7); colorectal adenocarcinoma (Caco-2); breast adenocarcinoma (MDA-MB231); colorectal carcinoma (HCT116); prostatic adenocarcinoma (PC3); lung carcinoma (NCL-H727); and breast cancer (MCF7). The residual cell percentages reported correspond to viable cells compared to the average viable cells in the DMSO control. Viability of 100% represents no cytotoxicity or inhibition of cell growth, while under 25–30% is considered cytotoxic and 0% represents acute cytotoxicity.

[3] = tested on: HuH7 (hepatocellular carcinoma); assay: Cytotoxicity test, ImPACcell platform; assay type: cell-based, human; details: 25 μM, 24 h
Protocol: as §1

[4] = tested on: PC3 (prostatic adenocarcinoma); assay: Cytotoxicity test, ImPACcell platform; assay type: cell-based, human; details: 25 μM, 24 h
Protocol: as §1

MCF7 (breast cancer) = assay: Cytotoxicity test, ImPACcell platform; assay type: cell-based, human; details: 25 μM, 24 h
Protocol: as §1

[5] = tested on: HCT116 (colorectal carcinoma); assay: Cytotoxicity test, ImPACcell platform; assay type: cell-based, human; details: 25 μM, 24 h
Protocol: as §1

[6] = tested on: NCL-H727 (lung carcinoma); assay: Cytotoxicity test, ImPACcell platform; assay type: cell-based, human; details: 25 μM, 24 h
Protocol: as §1

[7] = tested on: Caco-2 (colorectal adenocarcinoma); assay: Cytotoxicity test, ImPACcell platform; assay type: cell-based, human; details: 25 μM, 24 h
Protocol: as §1

Row | Sequence | reduction of biofilm mass [1] [%] | live cell counts compared to control [2] | live cell counts compared to control [3] | live cell counts compared to control [4] | live cell counts compared to control (MCF7 (breast cancer)) | live cell counts compared to control [5] | live cell counts compared to control [6] | live cell counts compared to control [7]
1 | KRFKKFFKKLK [Peptide 3] | 78 | – | – | – | – | – | – | –
2 | KRFKKFFKKVK [Peptide 1] | 77 | – | – | – | – | – | – | –
3 | KRFKKFFMKLK [Peptide 2] | – | no decrease in live cell counts | no decrease in live cell counts | no decrease in live cell counts | no decrease in live cell counts | no decrease in live cell counts | no decrease in live cell counts | no decrease in live cell counts
